In ChEMBL document CHEMBL3885861, “Open TG-GATES”:

Species on record: Rattus norvegicus
Test: Open TG-GATES - Regimen: Single
Type: toxicity, organism-based, Sprague-Dawley
Set-up: regimen Single, gender Male, age 6 weeks
Conditions: in vivo, po, 60 mg/kg, route gavage, dose level Low; for APTT / Bas / Eos / Fbg / Hb / Ht / Lym / MCH / MCHC / MCV / Mono / Neu / PT / Plat / RBC / Ret / WBC: tissue Blood; for KIDNEY_L / KIDNEY_R / KIDNEY_TOTAL: tissue Kidney; for LIVER: tissue Liver; for A/G / ALP / ALT / AST / BUN / CRE / Ca / Cl / DBIL / GLC / IP / K / LDH / Na / PL / RALB / TBIL / TC / TG / TP / gamma-GTP: tissue Plasma

C[C@](N)(Cc1ccc(O)c(O)c1)C(=O)O [METHYLDOPA]
TERMINAL_BW (3 h): 185.6 g | APTT (3 h): 17.5 s | Bas (3 h): 0% | Eos (3 h): 0.6% | Fbg (3 h): 265.2 mg/dL | Hb (3 h): 12.9 g/dL | Ht (3 h): 38.4% | Lym (3 h): 79% | MCH (3 h): 21.9 pg | MCHC (3 h): 33.5% | MCV (3 h): 65.4 fL | Mono (3 h): 3.2% | Neu (3 h): 16.6% | PT (3 h): 12.5 s | Plat (3 h): 123.5 x10_4/uL | RBC (3 h): 587 x10_4/ul | Ret (3 h): 10.7% | WBC (3 h): 81.1 x10_2/uL | KIDNEY_L (3 h): 0.8 g | KIDNEY_R (3 h): 0.8 g | KIDNEY_TOTAL (3 h): 1.6 g | LIVER (3 h): 7.8 g | A/G (3 h): 0.9 | ALP (3 h): 1439.4 IU/L | ALT (3 h): 54.2 IU/L | AST (3 h): 80 IU/L | BUN (3 h): 9 mg/dL | CRE (3 h): 0.1 mg/dL | Ca (3 h): 11.5 mg/dL | Cl (3 h): 107.2 meq/L | DBIL (3 h): 0.02 mg/dL | GLC (3 h): 186 mg/dL | IP (3 h): 10.1 mg/dL | K (3 h): 4.4 meq/L | LDH (3 h): 60.4 IU/L | Na (3 h): 143.8 meq/L | PL (3 h): 142.8 mg/dL | RALB (3 h): 2.6 g/dL | TBIL (3 h): 0.078 mg/dL | TC (3 h): 82.2 mg/dL | TG (3 h): 70.2 mg/dL | TP (3 h): 5.5 g/dL | gamma-GTP (3 h): 1.4 IU/L | TERMINAL_BW (6 h): 189.2 g | APTT (6 h): 16.7 s | Bas (6 h): 0% | Eos (6 h): 1% | Fbg (6 h): 250.4 mg/dL | Hb (6 h): 13 g/dL | Ht (6 h): 38.6% | Lym (6 h): 78.8% | MCH (6 h): 21.7 pg | MCHC (6 h): 33.6% | MCV (6 h): 64.8 fL | Mono (6 h): 3.2% | Neu (6 h): 16.2% | PT (6 h): 12.4 s | Plat (6 h): 117 x10_4/uL | RBC (6 h): 596.4 x10_4/ul | Ret (6 h): 10.3% | WBC (6 h): 64 x10_2/uL | KIDNEY_L (6 h): 0.8 g | KIDNEY_R (6 h): 0.8 g | KIDNEY_TOTAL (6 h): 1.6 g | LIVER (6 h): 7.6 g | A/G (6 h): 0.9 | ALP (6 h): 1752.4 IU/L | ALT (6 h): 50.2 IU/L | AST (6 h): 82 IU/L | BUN (6 h): 6.4 mg/dL | CRE (6 h): 0.2 mg/dL | Ca (6 h): 11.2 mg/dL | Cl (6 h): 107.6 meq/L | DBIL (6 h): 0.008 mg/dL | GLC (6 h): 184 mg/dL | IP (6 h): 11.4 mg/dL | K (6 h): 4.7 meq/L | LDH (6 h): 49.8 IU/L | Na (6 h): 144.2 meq/L | PL (6 h): 125.8 mg/dL | RALB (6 h): 2.5 g/dL | TBIL (6 h): 0.064 mg/dL | TC (6 h): 79 mg/dL | TG (6 h): 45.6 mg/dL | TP (6 h): 5.4 g/dL | gamma-GTP (6 h): 1 IU/L | TERMINAL_BW (9 h): 187.5 g | APTT (9 h): 17.1 s | Bas (9 h): 0% | Eos (9 h): 0.8% | Fbg (9 h): 248.8 mg/dL | Hb (9 h): 12.8 g/dL | Ht (9 h): 37.7% | Lym (9 h): 74.4% | MCH (9 h): 22 pg | MCHC (9 h): 34% | MCV (9 h): 64.7 fL | Mono (9 h): 2.6% | Neu (9 h): 21.2% | PT (9 h): 12.4 s | Plat (9 h): 117.7 x10_4/uL | RBC (9 h): 583 x10_4/ul | Ret (9 h): 10% | WBC (9 h): 65.1 x10_2/uL | KIDNEY_L (9 h): 0.8 g | KIDNEY_R (9 h): 0.8 g | KIDNEY_TOTAL (9 h): 1.6 g | LIVER (9 h): 7.1 g | A/G (9 h): 0.9 | ALP (9 h): 1707.4 IU/L | ALT (9 h): 47 IU/L | AST (9 h): 75.6 IU/L | BUN (9 h): 10.6 mg/dL | CRE (9 h): 0.1 mg/dL | Ca (9 h): 11 mg/dL | Cl (9 h): 107.4 meq/L | DBIL (9 h): 0.008 mg/dL | GLC (9 h): 201.2 mg/dL | IP (9 h): 10.6 mg/dL | K (9 h): 4.5 meq/L | LDH (9 h): 51.4 IU/L | Na (9 h): 144.2 meq/L | PL (9 h): 111.8 mg/dL | RALB (9 h): 2.5 g/dL | TBIL (9 h): 0.064 mg/dL | TC (9 h): 71.2 mg/dL | TG (9 h): 32.4 mg/dL | TP (9 h): 5.2 g/dL | gamma-GTP (9 h): 1 IU/L | TERMINAL_BW (24 h): 194.5 g | APTT (24 h): 18.6 s | Bas (24 h): 0% | Eos (24 h): 1.2% | Fbg (24 h): 242.4 mg/dL | Hb (24 h): 13.1 g/dL | Ht (24 h): 38.9% | Lym (24 h): 78.4% | MCH (24 h): 21.4 pg | MCHC (24 h): 33.7% | MCV (24 h): 63.6 fL | Mono (24 h): 2.8% | Neu (24 h): 17.4% | PT (24 h): 12.6 s | Plat (24 h): 115.8 x10_4/uL | RBC (24 h): 612.6 x10_4/ul | Ret (24 h): 9.4% | WBC (24 h): 81.6 x10_2/uL | KIDNEY_L (24 h): 0.8 g | KIDNEY_R (24 h): 0.8 g | KIDNEY_TOTAL (24 h): 1.6 g | LIVER (24 h): 9.2 g | A/G (24 h): 0.9 | ALP (24 h): 1854.6 IU/L | ALT (24 h): 52 IU/L | AST (24 h): 81.2 IU/L | BUN (24 h): 15.6 mg/dL | CRE (24 h): 0.2 mg/dL | Ca (24 h): 11.4 mg/dL | Cl (24 h): 108 meq/L | DBIL (24 h): 0.016 mg/dL | GLC (24 h): 189.8 mg/dL | IP (24 h): 8 mg/dL | K (24 h): 4.5 meq/L | LDH (24 h): 98.4 IU/L | Na (24 h): 143.6 meq/L | PL (24 h): 136.2 mg/dL | RALB (24 h): 2.6 g/dL | TBIL (24 h): 0.064 mg/dL | TC (24 h): 71.4 mg/dL | TG (24 h): 85.4 mg/dL | TP (24 h): 5.5 g/dL | gamma-GTP (24 h): 1 IU/L
